Laboratory results from patent US6916815B2, “C-6 modified indazolylpyrrolotriazines” (Bristol-Myers Squibb Company, priority 2002, dated 2005).
Where a name gives a salt, the structure may show the parent alone.

CCc1c(NC(=O)OC[C@@H]2COCCN2)cn2ncnc(Nc3ccc4c(cnn4Cc4ccccc4)c3)c12 (as salt: hydrochloride) [Example 1, [5-ethyl-4-[[(1-phenylmethyl)-1H-indazol-5-yl]amino]pyrrolo[2,1-f][1,2,4]triazin-6-yl]-carbamic acid, (3S)-3-morpholinylmethyl ester]
melting point: > 300 °C
